The test system of data set [1] is DIO C57BL/6J mice. The data set is described as follows: chronic daily SC dosing in DIO mice (body weight, food, glucose, insulin, tissue weights). The data set is classed as in vivo, mouse. Here is the method:
Body weight and food consumption were measured daily (FIGS. 8 and 9). On the last day of the study mice were fasted for 5 hours. At the end of the fasting period, glucose was measured (FIG. 6) and plasma was collected for insulin analysis. Plasma insulin was measured using an MSD kit. Fasting glucose and insulin were used to calculate the log (HOMA-IR) (FIG. 7).
Body weight was measured daily (FIG. 11). […] On the last day of the study, glucose was measured, and plasma was collected for insulin analysis. Plasma insulin was measured using an MSD kit. Glucose and insulin were used to calculate log (HOMA-IR) (FIG. 10).
DIO mice were acclimated to daily weighing and handling for approximately 1 week until their weight had stabilized. Mice were injected subcutaneously once daily with the indicated dose of peptide, or vehicle, based on current body weight. Injections were performed six hours before the dark cycle started to approximate reaching Tmax when the dark cycle started. Where indicated, 24-hour food consumption studies were performed as described above. Body weight as a percentage of initial weight was calculated daily by dividing the daily body weight by the body weight taken before the first dose of peptide, multiplied by 100%. Blood glucose was determined at study termination, and blood was collected to quantify plasma insulin concentrations. Mice were sedated by isoflurane and euthanized by decapitation. […] Plasma was stored at −80° C. until analysis. Subcutaneous and inguinal fat and the liver were removed and weighed.
DIO and ob/ob mice were acclimated to daily weighing and handling for approximately one week until weight had stabilized. […] Injections were performed six hours before the start of the dark cycle to approximate reaching Tmax when the dark cycle started. […] In both the DIO and ob/ob weight loss studies, body weight as a percentage of initial weight was calculated daily by dividing the daily body weight by the body weight taken before the first dose of peptide, multiplied by 100%. Blood glucose was determined at study termination, and blood was collected to quantify plasma insulin concentrations. Mice were sedated by isoflurane and euthanized by decapitation. […] Subcutaneous and inguinal fat and the liver were removed and weighed.

Data set [2] relates to lean C57BL/6J mice. The data set is described as follows: intraperitoneal glucose tolerance test in lean mice.
Data set [3] is described as follows: 1 mg/kg SC mouse.
Description: First reader's note: The heading '1 mg/kg SC mouse' is printed over the plot above the table and gives dose, route and species for the pharmacokinetic parameters.
The target in data set [4] is T1, human GIPR (Homo sapiens, UniProt P48546).
T1 sequence (P48546 22-466): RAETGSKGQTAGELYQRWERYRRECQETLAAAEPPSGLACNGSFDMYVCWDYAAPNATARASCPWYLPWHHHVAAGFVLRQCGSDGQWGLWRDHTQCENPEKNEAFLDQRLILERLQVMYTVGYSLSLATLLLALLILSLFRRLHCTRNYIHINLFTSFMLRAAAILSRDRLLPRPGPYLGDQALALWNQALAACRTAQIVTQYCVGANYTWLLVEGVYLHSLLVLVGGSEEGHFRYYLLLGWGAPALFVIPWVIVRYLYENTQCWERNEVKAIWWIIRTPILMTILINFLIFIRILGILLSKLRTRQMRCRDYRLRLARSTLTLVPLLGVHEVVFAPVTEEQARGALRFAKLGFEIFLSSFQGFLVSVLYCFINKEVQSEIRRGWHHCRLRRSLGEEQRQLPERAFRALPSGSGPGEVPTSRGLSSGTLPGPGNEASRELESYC
Description: cAMP accumulation, SNAP-human GIPR CHO-K1 cells.

The conditions of data set [5]: in vivo.

The values below come from patent US20240366728A1, “Treatment of Diabetes Mellitus” (Carmot Therapeutics Inc., priority 2023, published 2024).

Molecules are shown by their SMILES. Values joined by “and” are separate entries in the source; they are usually repeats but may differ in a detail not shown here. Identical values can stand only once.

Take `CCCCCCCCCCCCCCCC(=O)N[C@@H](CCC(=O)NCCCC[C@H](NC(=O)[C@H](CO)NC(=O)[C@@H]1CCCN1C(=O)[C@@H]1CCCN1C(=O)[C@@H]1CCCN1C(=O)[C@H](C)NC(=O)CNC(=O)[C@H](CO)NC(=O)[C@H](CO)NC(=O)[C@@H]1CCCN1C(=O)CNC(=O)CNC(=O)[C@H](C)NC(=O)[C@H](CC(C)C)NC(=O)[C@H](CC(C)C)NC(=O)[C@H](Cc1c[nH]c2ccccc12)NC(=O)[C@H](CC(N)=O)NC(=O)[C@@H](NC(=O)[C@H](Cc1ccccc1)NC(=O)[C@H](CCC(=O)O)NC(=O)C(C)(C)NC(=O)[C@H](C)NC(=O)[C@H](C)NC(=O)[C@H](CCC(N)=O)NC(=O)[C@H](CCCCN)NC(=O)[C@H](CC(=O)O)NC(=O)[C@H](CC(C)C)NC(=O)[C@H](Cc1ccc(O)cc1)NC(=O)[C@@H](NC(=O)[C@H](CO)NC(=O)[C@H](Cc1ccc(O)cc1)NC(=O)[C@H](CC(=O)O)NC(=O)[C@H](CO)NC(=O)[C@@H](NC(=O)[C@H](Cc1ccccc1)NC(=O)[C@@H](NC(=O)CNC(=O)[C@H](CCC(=O)O)NC(=O)CSCC(=O)NCCN1C(=O)CSC1=O)[C@@H](C)O)[C@@H](C)O)[C@@H](C)CC)C(C)C)C(N)=O)C(=O)O` [CT-859]: the “adipose tissue weight vs liraglutide (in words)” value in data set [1] was “decreases adipose tissue weight more than liraglutide”. For the same compound, in data set [1] (20 and 200 nmol/kg), the “body weight vs liraglutide (in words)” value was “decreases body weight more than liraglutide at non-GIPR and GIPR engaging doses”. In data set [1] (DIO mice, 20 nmol/kg, 19 days), the “body weight decreased compared to liraglutide, end of study” value was 8%; the “body weight decreased compared to vehicle, end of study” value came to 20%; the “fasting glucose (in words)” value is recorded as “lowered fasting glucose more than liraglutide”; the “inguinal adipose weight lower than vehicle” value is 39%. In addition, in data set [1] (DIO mice, 20 nmol/kg, 20 days), the “cumulative food intake vs liraglutide (in words)” value is “without significant difference in cumulative food intake”, the “fasting GLUC” value is listed as 146.5 mg/dL and the “weight loss (WL)” value is given as −16.5%. Further, in data set [1] (DIO mice, 20 nmol/kg, 20 days, fasted), the “insulin resistance log (HOMA-IR)” value is 0.74. In addition, in data set [1] (DIO mice, 200 nmol/kg, 19 days), the “adipose weight (in words)” value is “decreased inguinal and epididymal adipose weight more than liraglutide”; the “body weight decreased compared to liraglutide, end of study” value stood at 14%; the “body weight decreased compared to vehicle, end of study” value was 33% and ~35%; the “fed glucose levels (in words)” value is “decreased fed glucose levels more than the vehicle”. Also, in data set [1] (DIO mice, 200 nmol/kg, 20 days), the “nonfasted log (HOMA-IR)” value is 1.17 and the “weight loss (WL)” value was −30.1%. In addition, the “food consumption lowered compared to liraglutide” value in data set [1] (DIO mice, 200 nmol/kg, after 7 days of dosing) is recorded as 39%. The food intake in data set [1] (DIO mice, 200 nmol/kg, day 7) came out at 1.2 g. Also, the food intake in data set [1] (DIO mice, 200 nmol/kg, day 14) was 1.7 g. In addition, the “additional weight loss over liraglutide” value in data set [1] (DIO mice, GIPR-engaging dose) is reported as 10%. The “in vivo potency vs liraglutide (in words)” value in data set [2] is “more potent than liraglutide in vivo”. Also, the “duration of glucose lowering (in words)” value in data set [2] (lean C57BL/6J and DIO mice, single 20 nmol/kg) is “remained efficacious up to 48 hours post-administration”. In addition, the “ED50 for improving post-prandial glucose in ipGTT” value in data set [2] (lean C57BL/6J mice, 4 h after SC dose) came to 0.46 nmol/kg. Further, the “acute effect on GLUC AUC (in words)” value in data set [2] (lean mice, 20 nmol/kg, 4 h after administration) is given as “acute reduction of glucose (GLUC) AUC”. In addition, in data set [2] (lean mice, 20 nmol/kg, 48 hours), the “reduction in GLUC AUC vs. vehicle” value is on record as 45%. Besides, in data set [3], the “AUClast” value came to 3.579 µM·h and the Tmax – broadly, the time at which the peak concentration occurs – was 4.0 h.

`CCCCCCCCCCCCCCCC(=O)N[C@@H](CCC(=O)NCCCC[C@H](NC(=O)[C@H](CO)NC(=O)[C@@H]1CCCN1C(=O)[C@@H]1CCCN1C(=O)[C@@H]1CCCN1C(=O)[C@H](C)NC(=O)CNC(=O)[C@H](CO)NC(=O)[C@H](CO)NC(=O)[C@@H]1CCCN1C(=O)CNC(=O)CNC(=O)[C@H](C)NC(=O)[C@H](CC(C)C)NC(=O)[C@H](CC(C)C)NC(=O)[C@H](Cc1c[nH]c2ccccc12)NC(=O)[C@H](CC(N)=O)NC(=O)[C@@H](NC(=O)[C@H](Cc1ccccc1)NC(=O)[C@H](CCC(=O)O)NC(=O)C(C)(C)NC(=O)[C@H](C)NC(=O)[C@H](C)NC(=O)[C@H](CCC(N)=O)NC(=O)[C@H](CCCCN)NC(=O)[C@H](CC(=O)O)NC(=O)[C@H](CC(C)C)NC(=O)[C@H](Cc1ccc(O)cc1)NC(=O)[C@@H](NC(=O)[C@H](CO)NC(=O)[C@H](Cc1ccc(O)cc1)NC(=O)[C@H](CC(=O)O)NC(=O)[C@H](CO)NC(=O)[C@@H](NC(=O)[C@H](Cc1ccccc1)NC(=O)[C@@H](NC(=O)CNC(=O)[C@H](CCC(=O)O)NC(=O)CSCC(=O)NCCN1CCCCC1=O)[C@@H](C)O)[C@@H](C)O)[C@@H](C)CC)C(C)C)C(N)=O)C(=O)O` [CT-868]: the maximal response (Emax) (commonly the size of the effect at its maximum, as opposed to the concentration needed) in data set [4] (CHO-K1, read-out: hGIPR cAMP (-alb) % Emax) turned out to be 41%. Also, the EC50 (as a rule, the concentration needed to bring the measured effect to its halfway point) in data set [4] (potency activating cAMP at human GIPR, value of b126) was ~3.3 nM. In data set [5], the “highest tested dose exceeds pharmacologically active dose by” value stood at 100 fold and the “vomiting (in words)” value is reported as “no instances of vomiting”.
